According to ChEMBL document CHEMBL4229421 (Bioorg Med Chem Lett, 2018):

What was measured:
[1] = molecular target: Histone deacetylase 1 (Homo sapiens, UniProt Q13547); assay: Inhibition of human HDAC1 using p53 (379 to 382 residues) derived fluorogenic peptide RHKKAc as substrate
[2] = molecular target: T1, Protein deacetylase HDAC6 (Homo sapiens, UniProt Q9UBN7); assay: Inhibition of human HDAC6 using p53 (379 to 382 residues) derived fluorogenic peptide RHKKAc as substrate
T1 sequence (Q9UBN7 whole entry): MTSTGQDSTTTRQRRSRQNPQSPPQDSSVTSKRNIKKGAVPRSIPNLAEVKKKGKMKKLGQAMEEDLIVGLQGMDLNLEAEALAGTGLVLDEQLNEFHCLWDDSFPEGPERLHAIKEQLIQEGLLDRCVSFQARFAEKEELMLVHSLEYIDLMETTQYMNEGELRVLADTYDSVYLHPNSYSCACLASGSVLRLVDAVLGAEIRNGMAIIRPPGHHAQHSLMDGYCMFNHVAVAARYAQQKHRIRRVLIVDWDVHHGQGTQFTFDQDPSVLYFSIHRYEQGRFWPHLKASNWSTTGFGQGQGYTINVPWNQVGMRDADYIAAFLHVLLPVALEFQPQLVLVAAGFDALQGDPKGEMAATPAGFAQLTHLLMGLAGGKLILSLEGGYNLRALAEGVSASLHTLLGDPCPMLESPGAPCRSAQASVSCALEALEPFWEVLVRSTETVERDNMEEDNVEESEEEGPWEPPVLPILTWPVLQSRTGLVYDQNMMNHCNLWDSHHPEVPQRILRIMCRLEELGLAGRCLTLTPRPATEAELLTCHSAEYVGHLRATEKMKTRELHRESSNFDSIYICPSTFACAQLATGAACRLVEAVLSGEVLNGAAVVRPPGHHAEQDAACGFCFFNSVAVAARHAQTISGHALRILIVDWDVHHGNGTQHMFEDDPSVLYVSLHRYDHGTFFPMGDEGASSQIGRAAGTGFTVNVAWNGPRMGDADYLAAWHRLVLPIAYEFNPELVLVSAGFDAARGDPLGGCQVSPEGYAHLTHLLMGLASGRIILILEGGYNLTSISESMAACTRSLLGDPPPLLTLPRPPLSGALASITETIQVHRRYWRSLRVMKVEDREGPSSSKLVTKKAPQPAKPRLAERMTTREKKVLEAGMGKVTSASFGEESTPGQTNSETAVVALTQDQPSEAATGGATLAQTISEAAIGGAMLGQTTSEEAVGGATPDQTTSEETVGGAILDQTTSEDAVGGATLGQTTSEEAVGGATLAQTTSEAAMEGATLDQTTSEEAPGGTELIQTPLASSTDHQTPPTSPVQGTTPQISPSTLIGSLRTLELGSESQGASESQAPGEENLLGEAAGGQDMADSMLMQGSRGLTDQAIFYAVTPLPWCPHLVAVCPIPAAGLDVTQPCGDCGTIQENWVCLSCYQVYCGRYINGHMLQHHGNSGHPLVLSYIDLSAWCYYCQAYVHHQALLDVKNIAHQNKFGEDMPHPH

[3] = molecular target: Tyrosine-protein kinase JAK2 (Homo sapiens, UniProt O60674); assay: Inhibition of human JAK2 using poly[Glu:Tyr] (4:1) as substrate in presence of [gamma-33P]ATP
[4] = tested on: MDA-MB-231; assay: Antiproliferative activity against human MDA-MB-231 cells; type: functional, cell-based
[5] = tested on: HCT-116; assay: Antiproliferative activity against human HCT116 cells; type: functional, cell-based
[6] = tested on: PC-3; assay: Antiproliferative activity against human PC3 cells; type: functional, cell-based
[7] = tested on: MCF7; assay: Antiproliferative activity against human MCF7 cells; type: functional, cell-based
[8] = species on record: Homo sapiens; assay: Selectivity ratio of IC50 for human HDAC6 to IC50 for human HDAC1

Histone deacetylase 1, sequence (Q13547 whole entry, the tested form may be a part): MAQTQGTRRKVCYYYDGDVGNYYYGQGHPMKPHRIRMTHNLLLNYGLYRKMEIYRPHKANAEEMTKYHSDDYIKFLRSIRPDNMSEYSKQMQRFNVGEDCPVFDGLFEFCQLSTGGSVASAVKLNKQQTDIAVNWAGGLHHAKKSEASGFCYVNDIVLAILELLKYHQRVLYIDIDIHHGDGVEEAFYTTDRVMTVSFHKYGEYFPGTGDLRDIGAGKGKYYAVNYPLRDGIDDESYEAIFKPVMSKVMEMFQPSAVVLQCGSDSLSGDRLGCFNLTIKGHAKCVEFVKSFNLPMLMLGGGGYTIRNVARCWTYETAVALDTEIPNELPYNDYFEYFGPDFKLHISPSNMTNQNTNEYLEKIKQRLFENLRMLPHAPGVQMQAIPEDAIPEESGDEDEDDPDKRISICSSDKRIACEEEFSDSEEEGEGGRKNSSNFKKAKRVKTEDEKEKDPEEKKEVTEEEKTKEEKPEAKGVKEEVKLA
Tyrosine-protein kinase JAK2, sequence (O60674 whole entry): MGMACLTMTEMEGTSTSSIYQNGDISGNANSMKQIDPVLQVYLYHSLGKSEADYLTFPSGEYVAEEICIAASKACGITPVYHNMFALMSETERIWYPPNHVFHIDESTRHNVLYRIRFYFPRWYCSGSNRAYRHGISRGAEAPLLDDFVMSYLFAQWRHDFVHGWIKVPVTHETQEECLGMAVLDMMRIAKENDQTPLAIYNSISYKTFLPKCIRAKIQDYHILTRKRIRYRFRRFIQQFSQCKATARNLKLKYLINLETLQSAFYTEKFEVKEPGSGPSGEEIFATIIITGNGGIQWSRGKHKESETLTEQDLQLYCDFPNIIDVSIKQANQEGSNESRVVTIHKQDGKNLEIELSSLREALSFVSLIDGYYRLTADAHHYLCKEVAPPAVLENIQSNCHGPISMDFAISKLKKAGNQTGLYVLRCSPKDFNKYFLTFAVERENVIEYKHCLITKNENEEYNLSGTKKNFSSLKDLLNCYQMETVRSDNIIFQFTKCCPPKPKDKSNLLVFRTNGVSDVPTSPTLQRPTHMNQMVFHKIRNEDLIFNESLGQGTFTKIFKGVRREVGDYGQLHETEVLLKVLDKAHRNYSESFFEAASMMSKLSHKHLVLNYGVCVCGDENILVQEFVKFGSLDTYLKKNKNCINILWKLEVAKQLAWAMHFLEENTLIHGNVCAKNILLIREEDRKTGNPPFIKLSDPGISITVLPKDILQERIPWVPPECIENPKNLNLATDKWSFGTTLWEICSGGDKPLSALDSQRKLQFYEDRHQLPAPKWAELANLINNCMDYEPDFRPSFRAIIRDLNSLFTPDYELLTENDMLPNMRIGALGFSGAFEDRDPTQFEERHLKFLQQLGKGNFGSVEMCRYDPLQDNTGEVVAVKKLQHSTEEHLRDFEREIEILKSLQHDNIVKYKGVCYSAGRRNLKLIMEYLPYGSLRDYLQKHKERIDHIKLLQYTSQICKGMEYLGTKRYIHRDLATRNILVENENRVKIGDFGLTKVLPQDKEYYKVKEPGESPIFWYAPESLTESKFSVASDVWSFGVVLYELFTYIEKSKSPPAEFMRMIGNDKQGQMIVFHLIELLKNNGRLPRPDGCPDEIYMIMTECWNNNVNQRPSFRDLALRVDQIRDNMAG

Row | Structure (SMILES) | IC50 [1] | IC50 [2] | IC50 [3] | IC50 [4] | IC50 [5] | IC50 [6] | IC50 [7] | Ratio IC50 [8]
1 | N#CCCn1cc(-c2nc(Nc3ccc(NC(=O)CCCCCCC(=O)NO)cc3)nc3[nH]ccc23)cn1 | 45 nM | 0.85 nM |  |  |  |  |  | 
2 | O=C(CCCCCCC(=O)Nc1ccc(Nc2nc(-c3cnn(CCCCOc4ccccc4)c3)c3cc[nH]c3n2)cc1)NO | 1720 nM | 7 nM | 40 nM |  |  |  |  | 
3 | O=C(CCCCCCC(=O)Nc1ccc(Nc2nc(-c3cnn(CCCCCOc4ccccc4)c3)c3cc[nH]c3n2)cc1)NO | 1320 nM | 5.2 nM | 21 nM |  |  |  |  | 
4 | N#CC[C@H](C1CCCC1)n1cc(-c2ncnc3[nH]ccc23)cn1 [RUXOLITINIB] |  |  |  |  | > 10000 nM |  |  | 
5 | O=C(CCCCCCOc1ccc2cc1COC/C=C/COCc1cccc(c1)-c1ccnc(n1)N2)NO |  |  |  | > 10000 nM | > 10000 nM | > 10000 nM | > 10000 nM | 

The next lines start with the values.

Row | IC50 [1] | IC50 [2] | IC50 [3] | IC50 [4] | IC50 [5] | IC50 [6] | IC50 [7] | Ratio IC50 [8] | Structure (SMILES)
6 | 44 nM | 1.6 nM | 0.15 nM | 9100 nM | 6500 nM | 13400 nM | 8200 nM |  | CCCn1cc(-c2nc(Nc3ccc(NC(=O)CCCCCCC(=O)NO)cc3)nc3[nH]ccc23)cn1
7 | 2710 nM | 9.6 nM | 3 nM |  |  |  |  | 300 | O=C(CCCCCCC(=O)Nc1ccc(Nc2nc(-c3cnn(CC4CCCC4)c3)c3cc[nH]c3n2)cc1)NO
8 | 2000 nM | 15.8 nM | 19 nM |  |  |  |  |  | O=C(CCCCCCC(=O)Nc1ccc(Nc2nc(-c3cnn(CCCCCCOc4ccccc4)c3)c3cc[nH]c3n2)cc1)NO
9 | 83 nM | 0.25 nM | 0.041 nM | 7400 nM | 4100 nM | 7700 nM | 4500 nM | > 300 | C=CCCn1cc(-c2nc(Nc3ccc(NC(=O)CCCCCCC(=O)NO)cc3)nc3[nH]ccc23)cn1
10 | 63 nM | 2.1 nM | 2.3 nM | 13300 nM | 9400 nM | 35000 nM | 12200 nM |  | COCCn1cc(-c2nc(Nc3ccc(NC(=O)CCCCCCC(=O)NO)cc3)nc3[nH]ccc23)cn1
11 | 101 nM | 2.3 nM | 7.7 nM | > 100000 nM | > 100000 nM | > 100000 nM | > 100000 nM |  | CS(=O)(=O)CCn1cc(-c2nc(Nc3ccc(NC(=O)CCCCCCC(=O)NO)cc3)nc3[nH]ccc23)cn1
12 | 2 nM | 0.2 nM | 0.96 nM | 11800 nM | 14400 nM | 20100 nM | 15600 nM |  | O=C(CCCCCCC(=O)Nc1ccc(Nc2nc(-c3cn[nH]c3)c3cc[nH]c3n2)cc1)NO
